These results are taken from US6686390B2, “Compounds having antiinflamatory activity: process for their preparation and pharmaceutical compositions containing them” (Dr. Reddy's Laboratories Limited, priority 2000, dated 2004).

Data set [1] has as its target T1, COX-2 (Homo sapiens, UniProt P35354).
T1 sequence (P35354 18-604): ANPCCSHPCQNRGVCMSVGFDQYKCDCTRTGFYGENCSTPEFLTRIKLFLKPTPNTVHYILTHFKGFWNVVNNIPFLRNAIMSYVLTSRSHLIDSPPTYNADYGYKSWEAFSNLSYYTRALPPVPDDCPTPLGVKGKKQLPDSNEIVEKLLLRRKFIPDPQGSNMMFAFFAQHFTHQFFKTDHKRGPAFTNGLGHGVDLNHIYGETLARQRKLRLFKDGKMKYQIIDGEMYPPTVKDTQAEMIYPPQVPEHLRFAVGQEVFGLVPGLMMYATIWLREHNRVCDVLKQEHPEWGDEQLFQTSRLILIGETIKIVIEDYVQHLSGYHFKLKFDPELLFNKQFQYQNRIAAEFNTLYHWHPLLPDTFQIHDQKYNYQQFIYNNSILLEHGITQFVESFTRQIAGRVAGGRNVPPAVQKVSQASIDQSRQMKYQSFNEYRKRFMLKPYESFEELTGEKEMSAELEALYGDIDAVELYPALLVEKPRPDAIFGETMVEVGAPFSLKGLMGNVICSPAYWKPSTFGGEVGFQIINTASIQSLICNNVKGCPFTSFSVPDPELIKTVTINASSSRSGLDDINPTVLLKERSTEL
Nature of the data set: Spectrophotometric assay of cox-2 (TMPD oxidation). The data set is classed as biochemical. Further details: made in house; host or cells: sf-9 insect cells, baculovirus. As to conditions: Conc. 100 μM; microsomes from sf-9 cells with human cox-2; read-out: Percent inhibition COX-2. The method, then: (§1) 1. Spectrophotometric assay of cox-1 and cox-2:
(§2) Microsomal fraction of ram seminal vesicles used as a source of cox-1 enzyme (Hemler et al., 1976) and microsomes from sf-9 cells infected with baculo virus containing human cox-2 c-DNA used as a source of cox-2 enzyme (Wanda et al., 1994). Enzyme activity was measured using a chromogenic assay based on oxidation of N,N,N′,N′-tetramethyl-p-phenylenediamine (TMPD) during the reduction of PGG2 to PGH2 as per described by Copeland et al., 1994 with following modifications. The assay mixture (1000 μl) contains […] pH 8.0, 3 μM EDTA, 15 μM hematin, 150 units enzyme and 8% DMSO. The mixture was pre-incubated at 25° C. for 15 minutes before initiation of enzyme reaction in presence of compound/vehicle. The reaction was initiated by the addition of 100 μM arachidonic acid and 120 μM TMPD. The enzyme activity is measured by estimation of the initial velocity of TMPD oxidation over the first 25 seconds of the reaction followed by increase in absorbency at […]. The IC50 values were calculated using non-linear regression analysis of percent inhibitions.

In a further data set the target is T2, cox-1 enzyme (Ovis aries, UniProt P05979).
T2 construct: Microsomal fraction of ram seminal vesicles used as a source of cox-1 enzyme; from tissue; host or cells: ram seminal vesicles (microsomal fraction)
T2 sequence (P05979 25-600): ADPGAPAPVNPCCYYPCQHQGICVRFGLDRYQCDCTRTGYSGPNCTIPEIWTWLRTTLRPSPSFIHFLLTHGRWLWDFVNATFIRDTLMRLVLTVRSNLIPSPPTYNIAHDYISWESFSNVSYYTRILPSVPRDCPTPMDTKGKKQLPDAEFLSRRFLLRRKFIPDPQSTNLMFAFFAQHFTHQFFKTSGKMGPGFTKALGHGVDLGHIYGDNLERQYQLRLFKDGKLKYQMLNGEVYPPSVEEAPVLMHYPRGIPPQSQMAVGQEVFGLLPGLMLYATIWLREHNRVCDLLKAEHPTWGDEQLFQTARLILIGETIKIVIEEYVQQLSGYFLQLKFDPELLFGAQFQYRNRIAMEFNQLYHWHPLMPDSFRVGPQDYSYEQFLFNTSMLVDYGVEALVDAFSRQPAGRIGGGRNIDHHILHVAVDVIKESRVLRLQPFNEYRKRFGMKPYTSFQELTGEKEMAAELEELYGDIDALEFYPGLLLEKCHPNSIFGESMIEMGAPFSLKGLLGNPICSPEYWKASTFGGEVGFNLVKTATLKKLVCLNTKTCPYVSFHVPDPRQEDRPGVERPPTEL
Put plainly: Spectrophotometric assay of cox-1 (TMPD oxidation). The note with it: Conc. 100 μM; microsomal fraction of ram seminal vesicles; read-out: Percent inhibition COX-1. Type of data set: biochemical. The method, then: as §1, §2

The target in the next data set is T3, COX-1 (Homo sapiens, UniProt P23219).
T3 construct: Fresh heparinised human whole blood; endogenous in cells; host or cells: human whole blood
Put plainly: Human whole blood assay, COX-1 inhibition. The data set is classed as cell-based. How it is done: (§3) 2) Human Whole Blood Assay:
Fresh heparinised human whole blood was incubated with lipopolysaccharide (LPS) from E. coli at 100 μg/ml and with 2.5 μl vehicle (D)MSO) or test compound for 24 hours at 37° C. PGE2 levels in the plasma were measured using EIA kit (Cayman chemicals, USA) after deproteinization.

Data set [2] addresses T1, COX-2. Put plainly: Human whole blood assay, COX-2 inhibition. Type of data set: cell-based. Also on record: endogenous in cells; host or cells: human whole blood. As to conditions: read-out: IC50 COX-II. How it is done:
as §3
An aliquot of fresh blood was mixed either with DMSO or test compounds and was allowed to clot for 1 hour at 37° C. TXB2 levels in the serum were measured using EIA kit (Cayman chemicals, USA) after deproteinization.

T3 sequence (P23219 24-599): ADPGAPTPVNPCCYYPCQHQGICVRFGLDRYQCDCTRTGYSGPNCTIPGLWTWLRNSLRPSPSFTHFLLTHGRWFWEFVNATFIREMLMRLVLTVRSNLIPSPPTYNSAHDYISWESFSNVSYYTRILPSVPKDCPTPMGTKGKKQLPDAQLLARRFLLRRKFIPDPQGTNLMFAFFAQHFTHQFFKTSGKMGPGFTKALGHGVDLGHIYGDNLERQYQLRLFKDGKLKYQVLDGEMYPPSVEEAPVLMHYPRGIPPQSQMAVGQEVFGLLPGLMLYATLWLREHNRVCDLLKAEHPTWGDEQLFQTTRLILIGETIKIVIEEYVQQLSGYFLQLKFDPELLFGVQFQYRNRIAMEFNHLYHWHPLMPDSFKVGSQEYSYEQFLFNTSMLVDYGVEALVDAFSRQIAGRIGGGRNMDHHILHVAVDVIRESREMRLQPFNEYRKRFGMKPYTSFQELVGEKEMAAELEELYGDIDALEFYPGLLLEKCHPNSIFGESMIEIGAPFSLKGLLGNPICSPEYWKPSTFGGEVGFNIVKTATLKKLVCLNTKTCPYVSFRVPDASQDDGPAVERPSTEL

Compound `CSc1ccc(C2=C(c3ccccc3)C(=O)OC2)c(F)c1` [Example 18, 4-(2-Fluoro-4-methylsulfanylphenyl)-3-phenyl-2,5-dihydro-2-furanone] gave a melting point of 145 to 147 °C.

`CCC1OC(=O)C(c2ccc(SC)c(C)c2)=C1c1ccc(S(C)(=O)=O)c(F)c1` (stereo not shown) [Example 71, 5-Ethyl-4-(3-fluoro-4-methylsulfonylphenyl)-3-(3-methyl-4-methylsulfanylphenyl)-2,5-dihydro-2-furanone]: the melting point lay within 148 to 150 °C. The inhibition at 100 µM on COX-2 [1] was found to be 99%. The inhibition at 100 µM at cox-1 enzyme was 3%.

The compound `CC1(C)OC(=O)C(c2ccc(F)cc2)=C1c1ccc(S(C)(=O)=O)c(CN2CCOCC2)c1` [Example 67, 3-(4-Fluorophenyl)-5,5-dimethyl-4-(4-methylsulfonyl-3-morpholinomethylphenyl)-2,5-dihydro-2-furanone] returned a melting point of 127 to 130 °C.

In the case of `CSc1ccc(C2=C(c3ccc(F)cc3)C(=O)OC2)cc1C` [Example 7, 4-(3-Methyl-4-methylsulfanylphenyl)-3-(4-fluorophenyl)-2,5-dihydro-2-furanone], the melting point fell in the range of 126 to 130 °C.

Regarding `CCC1OC(=O)C(c2ccc(F)cc2)=C1c1ccc(S(C)(=O)=O)c(F)c1` (stereo not shown) [Example 68, 5-Ethyl-4-(3-fluoro-4-methylsulfonylphenyl)-3-(4-fluorophenyl)-2,5-dihydro-2-furanone], the melting point was 176 to 178 °C. Besides, the inhibition at 100 µM at COX-2 [1] came to 100%. The compound further had a concentration for half-maximal inhibition (IC50) against COX-1 of 297 µM. In addition, at cox-1 enzyme, the inhibition at 100 µM amounted to 0%. Also, the IC50 at COX-2 [2] was determined as 1.25 µM.

Consider `COc1ccc(C2=C(c3ccc(SC)c(C)c3)COC2=O)cc1` [Example 12, 4-(3-Methyl-4-methylsulfanylphenyl)-3-(4-methoxyphenyl)-2,5-dihydro-2-furanone], for which the melting point was 147 to 150 °C.

As to `CSc1ccc(C2=C(c3ccc(SC)c(Cl)c3)COC2=O)cc1` [Example 21, 3-(4-Methylsulfanylphenyl)-4-(3-chloro-4-methylsulfanylphenyl)-2,5-dihydro-2-furanone], the melting point lay within 157 to 158 °C.

`CSc1ccc(C2=C(c3ccc(CC(C)C)cc3)C(=O)OC2)cc1C` [Example 11, 4-(3-Methyl-4-methylsulfanylphenyl)-3-(4-isobutylphenyl)-2,5-dihydro-2-furanone] showed a melting point of 146 to 149 °C.

For the compound `CSc1ccc(C2=C(c3ccc(C)cc3)C(=O)OC2)cc1Cl` [Example 26, 4-(4-Methylsulfanyl-3-chlorophenyl)-3-(4-methylphenyl)-2,5-dihydro-2-furanone], the melting point lay within 147 to 149 °C.

Take `CSc1ccc(C2=C(c3ccccc3)C(=O)OC2)cc1F` [Example 23, 4-(4-Methylsulfanyl-3-fluorophenyl)-3-phenyl-2,5-dihydro-2-furanone]: the melting point was in the range of 145 to 146 °C.

The compound `CSc1ccc(C2=C(c3ccccc3)C(=O)OC2)cc1Cl` [Example 20, 4-(4-Methylsulfanyl-3-chlorophenyl)-3-phenyl-2,5-dihydro-2-furanone] returned a melting point of 151 to 152 °C.

`CSc1ccc(C2=C(c3ccc(C)cc3)C(=O)OC2)cc1F` [Example 27, 4-(4-Methylsulfanyl-3-fluorophenyl)-3-(4-methylphenyl)-2,5-dihydro-2-furanone] gave a melting point of 159 to 160 °C.

As to `CSc1ccc(C2=C(c3ccc(C(F)(F)F)cc3)C(=O)OC2)cc1C` [Example 16, 4-(3-Methyl-4-methylsulfanylphenyl)-3-(4-trifluoromethylphenyl)-2,5-dihydro-2-furanone], the melting point fell in the range of 140 to 143 °C.

In turn, `COc1ccc(C2=C(c3ccc(SC)c(F)c3)COC2=O)cc1` [Example 38, 4-(4-Methylsulfanyl-3-fluorophenyl)-3-(4-methoxyphenyl)-2,5-dihydro-2-furanone] displayed a melting point of 122 to 124 °C.

The compound `CSc1ccc(C2=C(c3ccc(F)c(F)c3)C(=O)OC2)cc1C` [Example 3, 4-(3-Methyl-4-methylsulfanylphenyl)-3-(3,4-difluorophenyl)-2,5-dihydro-2-furanone] gave a melting point of 150 to 153 °C.

As to `CS(=O)(=O)c1ccc(C2=C(c3cccc4ccccc34)C(=O)OC2)c(F)c1` [Example 54, 4-(2-Fluoro-4-methylsulfonylphenyl)-3-(1-naphthyl)-2,5-dihydro-2-furanone], the melting point lay within 145 to 148 °C.

In the case of `CSc1ccc(C2=C(c3ccc(CC(C)C)cc3)C(=O)OC2)c(F)c1` [Example 35, 4-(2-Fluoro-4-methylsulfanylphenyl)-3-(4-isobutylphenyl)-2,5-dihydro-2-furanone], the melting point fell in the range of 92 to 94 °C.

`CSc1ccc(C2=C(c3ccc(C)cc3)C(=O)OC2)cc1C` [Example 8, 4-(3-Methyl-4-methylsulfanylphenyl)-3-(4-methylphenyl)-2,5-dihydro-2-furanone] registered a melting point of 144 to 147 °C.

Regarding `CSc1ccc(C2=C(c3ccc(SC)c(F)c3)COC2=O)cc1` [Example 24, 4-(4-Methylsulfanyl-3-fluorophenyl)-3-(4-methylsulfanylphenyl)-2,5-dihydro-2-furanone], the melting point is 161 to 162 °C.

As for `CS(=O)(=O)c1ccc(C2=C(c3ccccc3)C(=O)N(c3ccc(F)cc3)C2=O)c(F)c1` [Example 98, 3-(2-Fluoro-4-methylsulfonylphenyl)-1-(4-fluorophenyl)-4-phenyl-2,5-dihydro-1H-2,5-azoledione], the melting point is 198 to 200 °C.

Consider `COOSc1ccc(C2=C(c3ccc(C)cc3)C(=O)OC2)cc1Cl` [Example 29], for which the melting point was 164 to 166 °C.

`CSc1ccc(C2=C(c3ccccc3)C(=O)OC2)cc1C` [Example 5, 4-(3-Methyl-4-methylsulfanylphenyl)-3-phenyl-2,5-dihydro-2-furanone]: the melting point lay within 150 to 153 °C.

In turn, `CSc1ccc(C2=C(c3ccc(F)c(F)c3)C(=O)OC2)cc1Cl` [Example 22, 4-(4-Methylsulfanyl-3-chlorophenyl)-3-(3,4-difluorophenyl)-2,5-dihydro-2-furanone] showed a melting point of 151 to 152 °C.

For the compound `CSc1ccc(C2=C(c3ccc(F)cc3)C(=O)OC2)c(F)c1` [Example 42, 4-(2-Fluoro-4-methylsulfanylphenyl)-3-(4-fluorophenyl)-2,5-dihydro-2-furanone], the melting point was 118 °C.

Consider `COc1cc(C2=C(c3ccccc3)C(=O)OC2)ccc1SC` [Example 14, 3-Phenyl-4-(3-methoxy-4-methylsulfanylphenyl)-2,5-dihydro-2-furanone], for which the melting point was in the range of 142 to 144 °C.

As usually defined, the melting point is the temperature, or range, at which the solid turns liquid. What is called inhibition is the share of the control response that was lost under treatment. As a reminder, the IC50 is the concentration that gives 50% inhibition.
